In patent publication US5258286A, “Method of terminating isocitrate dehydrogenase reaction” (Oriental Yeast Co., Ltd., priority 1985, dated 1993):

System: iCDH (isocitrate dehydrogenase)
Conditions: EDTA concentration of 5 mM; 0.4 mM MgCl2, 1.6 mM isocitric acid, 1 mM NADP+, 0.1M triethanolamine hydrochloride pH 8.5, 25° C.; FIG. 1
Method: A varied amount of EDTA was added to 3 ml of a 0.1M triethanolamine hydrochloride solution (pH 8.5) containing the above-listed ingredients to provide an EDTA concentration of 0 to 10 mM. Each of the resulting mixtures was kept at a temperature of 25° C., and admixed with 20 μl of iCDH of about 3 u/ml, followed by measurement of the iCDH activity based on an increase in absorption at 340 nm by spectrophotometry.

O=C(O)CN(CCN(CC(=O)O)CC(=O)O)CC(=O)O [EDTA]
iCDH activity: completely loses its activity
